In ChEMBL document CHEMBL1201862, “PubChem BioAssay data set” (2004):
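Cultured in 96-well plates, cells were exposed to test compound for 48 hours across five concentrations. GI50 = concentration required for 50% inhibition of growth.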 Activity calls are given as the source filed them. Cut-off read from the data, not from the text of the source: active = GI50 up to about 1.1 µM and inactive = higher. Where a SMILES comes first, the peptide text is derived from it. [ ]: non-standard residue; d: D form. The star is where a group is joined. Phe(4-NO2) = N[CH](Cc1ccc([N+](=O)[O-])cc1)C(=O)O; Boc = CC(C)(C)OC(=O)*; OtBu = CC(C)(C)O*

Experiments:
Test in all cases: growth of human tumour cells (NCI), 48 h
HCC 2998 = tested on: HCC 2998
NCI-H460 = tested on: NCI-H460
SW-620 = tested on: SW-620
SK-MEL-28 = tested on: SK-MEL-28
M19-MEL = tested on: M19-MEL
U-251 = tested on: U-251
OVCAR-8 = tested on: OVCAR-8
NCI-H23 = tested on: NCI-H23
DMS-114 = tested on: DMS-114
SR = tested on: SR
HCT-15 = tested on: HCT-15
LOX IMVI = tested on: LOX IMVI
DU-145 = tested on: DU-145
M14 = tested on: M14
CCRF-CEM = tested on: CCRF-CEM
LXFL 529 = tested on: LXFL 529
OVCAR-4 = tested on: OVCAR-4
Malme-3M = tested on: Malme-3M
HCT-116 = tested on: HCT-116

SMILES | GI50 (HCC 2998) | GI50 (NCI-H460) | GI50 (SW-620) | GI50 (SK-MEL-28) | GI50 (M19-MEL) | GI50 (U-251) | GI50 (OVCAR-8) | GI50 (NCI-H23) | GI50 (DMS-114) | GI50 (SR) | GI50 (HCT-15) | GI50 (LOX IMVI) | GI50 (DU-145) | GI50 (M14) | GI50 (CCRF-CEM) | GI50 (LXFL 529) | GI50 (OVCAR-4) | GI50 (Malme-3M) | GI50 (HCT-116)
C=CC(=O)N1C/C(=C\c2ccccc2)C(=O)/C(=C/c2ccccc2)C1 | 1.95 µM (inactive) | 1.89 µM (inactive) | 0.259 µM (active) | 1.82 µM (inactive) | 0.979 µM (active) | 0.877 µM (active) | 1.3 µM (inactive) | 2.14 µM (inactive) | 1.01 µM (active) | 0.476 µM (active) | 1.18 µM | 0.254 µM (active) | 5.13 µM (inactive) | 1.71 µM (inactive) | 0.351 µM (active) | 1.33 µM (inactive) | 2.16 µM (inactive) | 2.15 µM (inactive) | 0.195 µM (active)
O=[N+]([O-])c1c(/C=N/Nc2ccccc2)oc(-c2ccc3c(c2)OCO3)c1-c1ccc2c(c1)OCO2 | 5.71 µM (inactive) | – | 11.1 µM (inactive) | 23.4 µM (inactive) | 13.8 µM (inactive) | – | 5.56 µM (inactive) | 51.2 µM (inactive) | 5.02 µM (inactive) | 1.54 µM (inactive) | – | 0.74 µM (active) | – | 3 µM (inactive) | – | 0.746 µM (active) | 21.5 µM (inactive) | 16.4 µM (inactive) | 8.47 µM (inactive)
CCC(=O)C(C(C)/C=C/CCSc1ccccc1)C(O)CCCCCC(=O)OC (configuration not stated) | > 100 µM (inactive) | > 100 µM (inactive) | > 100 µM (inactive) | > 100 µM (inactive) | – | 77.8 µM (inactive) | > 100 µM (inactive) | 77.3 µM (inactive) | – | 32.9 µM (inactive) | 88.7 µM | 81.3 µM (inactive) | > 100 µM (inactive) | > 100 µM (inactive) | 38.6 µM (inactive) | – | > 100 µM (inactive) | > 100 µM (inactive) | > 100 µM (inactive)
Cc1cnc2c(c1)C(=O)C1=C(OC(C)(C)CC1O)C2=O (configuration not stated) | 17.7 µM (inactive) | 11 µM (inactive) | 14.7 µM (inactive) | 17.3 µM (inactive) | 3.1 µM (inactive) | 15.2 µM (inactive) | 15 µM (inactive) | 10.7 µM (inactive) | 10.4 µM (inactive) | 7.89 µM (inactive) | 16.7 µM | 10.5 µM (inactive) | – | 16.4 µM (inactive) | 13.2 µM (inactive) | 16.2 µM (inactive) | 12.8 µM (inactive) | 14.4 µM (inactive) | 14.4 µM (inactive)
COC(=O)C1Cc2c([nH]c3ccccc23)C(c2ccccc2O)N1 (configuration not stated) | 60.1 µM (inactive) | 18.5 µM (inactive) | > 100 µM (inactive) | > 100 µM (inactive) | – | > 100 µM (inactive) | 68.1 µM (inactive) | 52 µM (inactive) | 58.1 µM (inactive) | > 100 µM (inactive) | 30.5 µM | 60.8 µM (inactive) | – | 93.8 µM (inactive) | 45.4 µM (inactive) | 62.7 µM (inactive) | 53.5 µM (inactive) | > 100 µM (inactive) | 66.8 µM (inactive)
O=c1c2cc(S(=O)(=O)Nc3ccccc3Cl)ccc2ncn1NS(=O)(=O)c1ccc(Br)cc1 | > 37.5 µM (inactive) | > 37.5 µM (inactive) | > 37.5 µM (inactive) | > 37.5 µM (inactive) | – | > 37.5 µM (inactive) | > 37.5 µM (inactive) | > 37.5 µM (inactive) | – | > 37.5 µM (inactive) | > 37.5 µM | > 37.5 µM (inactive) | > 37.5 µM (inactive) | > 37.5 µM (inactive) | > 37.5 µM (inactive) | – | > 37.5 µM (inactive) | > 37.5 µM (inactive) | > 37.5 µM (inactive)
Nc1ncnc2c1ncn2CC(O)C(=O)O (configuration not stated) | > 100 µM (inactive) | > 100 µM (inactive) | > 100 µM (inactive) | > 100 µM (inactive) | > 100 µM (inactive) | > 100 µM (inactive) | > 100 µM (inactive) | > 100 µM (inactive) | > 100 µM (inactive) | > 100 µM (inactive) | > 100 µM | > 100 µM (inactive) | > 100 µM (inactive) | > 100 µM (inactive) | > 100 µM (inactive) | > 100 µM (inactive) | > 100 µM (inactive) | > 100 µM (inactive) | > 100 µM (inactive)
Clc1ccc(C2=CC(c3ccccc3)N3C(=N[C@H]4CCCC[C@@H]43)N2)cc1 (some centres not stated) | 2.08 µM (inactive) | 2.88 µM (inactive) | 3.74 µM (inactive) | 2.79 µM (inactive) | – | 4.54 µM (inactive) | 2.7 µM (inactive) | 7.82 µM (inactive) | – | 2.14 µM (inactive) | 4.08 µM | 6.46 µM (inactive) | 8.41 µM (inactive) | 2.98 µM (inactive) | 4.94 µM (inactive) | – | 5.61 µM (inactive) | 2.67 µM (inactive) | 3.03 µM (inactive)
CC(C)(C)c1cc(C(=O)O)c2c(c1)C(=O)OC2(c1ccccc1)c1ccccc1C(=O)O (configuration not stated) | 0.467 µM (active) | > 100 µM (inactive) | > 100 µM (inactive) | > 100 µM (inactive) | > 100 µM (inactive) | 0.0448 µM (active) | > 100 µM (inactive) | > 100 µM (inactive) | > 100 µM (inactive) | > 100 µM (inactive) | > 100 µM | > 100 µM (inactive) | – | > 100 µM (inactive) | > 100 µM (inactive) | > 100 µM (inactive) | 78.3 µM (inactive) | > 100 µM (inactive) | > 100 µM (inactive)
O=C1c2ccccc2N2OC3C4CCC(C4)C3C12c1ccccc1 (configuration not stated) | > 100 µM (inactive) | – | > 100 µM (inactive) | 87.3 µM (inactive) | 93.1 µM (inactive) | 86.5 µM (inactive) | > 100 µM (inactive) | 94.6 µM (inactive) | 62.5 µM (inactive) | 44.1 µM (inactive) | 45.8 µM | – | – | 92.5 µM (inactive) | 44.2 µM (inactive) | 73.8 µM (inactive) | > 100 µM (inactive) | > 100 µM (inactive) | 45.5 µM (inactive)
C=C(C)C1CC/C(C)=C/CCC2(C)OC2CC/C(CO)=C\C1O (configuration not stated) | > 100 µM (inactive) | 42.7 µM (inactive) | > 100 µM (inactive) | > 100 µM (inactive) | – | 98.4 µM (inactive) | > 100 µM (inactive) | > 100 µM (inactive) | – | 36.9 µM (inactive) | > 100 µM | > 100 µM (inactive) | > 100 µM (inactive) | 49.3 µM (inactive) | 19.1 µM (inactive) | – | > 100 µM (inactive) | 52.1 µM (inactive) | > 100 µM (inactive)
Cc1nc2ccccc2c(=O)n1/N=C(\N=N\c1ccccc1Cl)c1ccccc1 | – | 23.9 µM (inactive) | 22.7 µM (inactive) | 41.5 µM (inactive) | 25.8 µM (inactive) | 26.7 µM (inactive) | 31.3 µM (inactive) | 44.5 µM (inactive) | 15.5 µM (inactive) | – | 22.2 µM | 24.8 µM (inactive) | – | 18.1 µM (inactive) | 17.3 µM (inactive) | – | – | – | > 10 µM (inactive)
COc1ccc(/C=N/N=C(\N)NO)c(O)c1 | > 10 µM (inactive) | 4.91 µM (inactive) | > 10 µM (inactive) | > 10 µM (inactive) | – | > 10 µM (inactive) | > 10 µM (inactive) | > 10 µM (inactive) | – | 2.81 µM (inactive) | 6.24 µM | 3.27 µM (inactive) | > 10 µM (inactive) | 5.01 µM (inactive) | > 10 µM (inactive) | – | > 10 µM (inactive) | 9.75 µM (inactive) | 3.53 µM (inactive)
COC(=O)C1=C(C(=O)NNc2ccccc2)N(c2cccnc2Cl)C(c2ccccc2)=CC1c1ccccc1 (configuration not stated) | 60.3 µM (inactive) | 65.2 µM (inactive) | 31.6 µM (inactive) | 48.2 µM (inactive) | – | 47.1 µM (inactive) | > 100 µM (inactive) | 73.8 µM (inactive) | – | 24 µM (inactive) | 39.3 µM | 30.5 µM (inactive) | 80.9 µM (inactive) | 33.3 µM (inactive) | 27.7 µM (inactive) | – | > 100 µM (inactive) | 27.8 µM (inactive) | 23.7 µM (inactive)
CNC(=S)NNC(=O)c1c(C)nc2sccn12 | > 100 µM (inactive) | > 100 µM (inactive) | > 100 µM (inactive) | > 100 µM (inactive) | > 100 µM (inactive) | > 100 µM (inactive) | > 100 µM (inactive) | > 100 µM (inactive) | – | > 100 µM (inactive) | > 100 µM | > 100 µM (inactive) | – | – | > 100 µM (inactive) | > 100 µM (inactive) | – | > 100 µM (inactive) | > 100 µM (inactive)
COC(=O)[C@@]12C3=NO[C@]1(C(=O)OC)C(O[Si](C)(C)C(C)(C)C)[C@H]1OC(C)(C)O[C@H]1[C@@H]2C(OCc1ccccc1)CC3 (some centres not stated) | 63.1 µM (inactive) | 6.21 µM (inactive) | > 100 µM (inactive) | > 100 µM (inactive) | 71.8 µM (inactive) | 43.5 µM (inactive) | 92.5 µM (inactive) | 80.4 µM (inactive) | 36.6 µM (inactive) | – | > 100 µM | 69 µM (inactive) | – | 26.9 µM (inactive) | > 100 µM (inactive) | 60 µM (inactive) | 22.3 µM (inactive) | – | 41.8 µM (inactive)
COC(=O)C(Cc1ccc([N+](=O)[O-])cc1)NC(=O)C(CC(=O)OC(C)(C)C)NC(=O)OC(C)(C)C (configuration not stated) (Boc-Asp(OtBu)-[Phe(4-NO2)]-OMe; configuration not given here) | 35.2 µM (inactive) | > 100 µM (inactive) | > 100 µM (inactive) | 25.5 µM (inactive) | – | > 100 µM (inactive) | 38.1 µM (inactive) | > 100 µM (inactive) | – | 21.4 µM (inactive) | > 100 µM | 20.9 µM (inactive) | > 100 µM (inactive) | 29.4 µM (inactive) | > 100 µM (inactive) | – | 38.4 µM (inactive) | > 100 µM (inactive) | > 100 µM (inactive)
